Experimental data published in US20060069132A1, “Azolecarboxamide herbicides” (priority 2004, published 2006).

What was measured:
[1] = tested on: giant foxtail; experiment: Test A pre-/postemergence herbicide test; assay type: in vivo, Setaria faberi
Excerpt: (§1) Seeds of plant species selected from barnyardgrass (Echinochloa crus-galli (L.) Beauv.), downy bromegrass (Bromus tectorum L.), large crabgrass (Digitaria sanguinalis (L.) Scop.), giant foxtail (Setaria faberi Herrm.), morningglory (Ipomoea spp.), redroot pigweed (Amaranthus retroflexus L.) and velvetleaf (Abutilon theophrasti Medik.) were planted into a sandy loam soil and treated preemergence with a directed soil spray using test chemicals formulated in a non-phytotoxic solvent mixture which included a surfactant. At the same time plants selected from these species were also treated postemergence by spraying to runoff with test chemicals formulated.
(§2) Plants ranged in height from 2 to 10 cm and were in the one- to two-leaf stage for the postemergence treatment. Treated plants and untreated controls were maintained in a greenhouse for approximately ten days, after which time all treated plants were compared to untreated controls and visually evaluated for injury. Plant response ratings, summarized in Table A, are based on a 0 to 100 scale where 0 is no effect and 100 is complete control. A dash (-) response means no test results.

[2] = tested on: redroot pigweed; experiment: Test A pre-/postemergence herbicide test; assay type: in vivo, Amaranthus retroflexus
Excerpt: as §1, §2

[3] = tested on: barnyardgrass; experiment: Test A pre-/postemergence herbicide test; assay type: in vivo, Echinochloa crus-galli
Excerpt: as §1, §2

[4] = tested on: morningglory; experiment: Test A pre-/postemergence herbicide test; assay type: in vivo, Ipomoea spp.
Excerpt: as §1, §2

[5] = tested on: velvetleaf; experiment: Test A pre-/postemergence herbicide test; assay type: in vivo, Abutilon theophrasti
Excerpt: as §1, §2

[6] = tested on: large crabgrass; experiment: Test A pre-/postemergence herbicide test; assay type: in vivo, Digitaria sanguinalis
Excerpt: as §1, §2

[7] = tested on: corn; experiment: Test B pre-/postemergence herbicide test; assay type: in vivo, Zea mays
Excerpt: (§3) Seeds selected from barnyardgrass (Echinochloa crus-galli (L.) Beauv.), Surinam grass (Urochloa decumbens (Staph) R. D. Webster, previously named Brachiaria decumbens Stapf), cocklebur (Xanthium strumarium L.), corn (Zea mays L.), large crabgrass (Digitaria sanguinalis (L.) Scop.), giant foxtail (Setaria faberi Herim.), lambsquarters (Chenopodium album L.), morningglory (Ipomoea coccinea L.), pigweed (Amaranthus retroflexus L.), rice (Oryza sativa L.) and velvetleaf (Abutilon theophrasti Medik.) were planted and treated preemergence with test chemicals formulated in a non-phytotoxic solvent mixture which included a surfactant.
(§4) At the same time, plants selected from these crop and weed species and also blackgrass (Alopecurus myosuroides Huds.), wheat (Triticum aestivum L.) and wild oat (Avena fatua L.) were treated with postemergence applications of test chemicals formulated in the same manner. Plants ranged in height from 2 to 18 cm (1- to 4-leaf stage) for postemergence treatments. Plant species in the flooded paddy test consisted of rice (Oryza sativa L.), small flower umbrella sedge (Cyperus difformis L.), ducksalad (Heteranthera limosa (Sw.) Willd.) and barnyardgrass (Echinochloa crus-galli (L.) Beauv.) grown to the 2-leaf stage for testing. Treated plants and controls were maintained in a greenhouse for 13 to 15 days, after which time all species were compared to controls and visually evaluated. Plant response ratings, summarized in Table B, are based on a scale of 0 to 100 where 0 is no effect and 100 is complete control. A dash (-) response means no test result.

[8] = tested on: large crabgrass; experiment: Test B pre-/postemergence herbicide test; assay type: in vivo, Digitaria sanguinalis
Excerpt: as §3, §4

[9] = tested on: Surinam grass; experiment: Test B pre-/postemergence herbicide test; assay type: in vivo, Urochloa decumbens
Excerpt: as §3, §4

[10] = tested on: barnyardgrass; experiment: Test B pre-/postemergence herbicide test; assay type: in vivo, Echinochloa crus-galli; details: for Barnyardgrass plant response rating: Postemergence, scale 0 (no effect) to 100 (complete control)
Excerpt: as §3, §4

[11] = tested on: wild oat; experiment: Test B postemergence herbicide test; assay type: in vivo, Avena fatua
Method: as §4

[12] = tested on: blackgrass; experiment: Test B postemergence herbicide test; assay type: in vivo, Alopecurus myosuroides
Method: as §4

[13] = tested on: pigweed; experiment: Test B pre-/postemergence herbicide test; assay type: in vivo, Amaranthus retroflexus
Excerpt: as §3, §4

[14] = tested on: small flower umbrella sedge; experiment: Test B flooded paddy test; assay type: in vivo, Cyperus difformis; details: 125 g ai/ha, scale 0 to 100 (0 no effect, 100 complete control)
Method: as §4

[15] = tested on: lambsquarters; experiment: Test B pre-/postemergence herbicide test; assay type: in vivo, Chenopodium album
Excerpt: as §3, §4

[16] = tested on: rice; experiment: Test B flooded paddy test; assay type: in vivo, Oryza sativa; details: 125 g ai/ha, scale 0 to 100 (0 no effect, 100 complete control)
Method: as §4

[17] = tested on: velvetleaf; experiment: Test B pre-/postemergence herbicide test; assay type: in vivo, Abutilon theophrasti
Excerpt: as §3, §4

[18] = tested on: giant foxtail; experiment: Test B pre-/postemergence herbicide test; assay type: in vivo, Setaria faberi
Excerpt: as §3, §4

[19] = tested on: cocklebur; experiment: Test B pre-/postemergence herbicide test; assay type: in vivo, Xanthium strumarium
Excerpt: as §3, §4

[20] = tested on: ducksalad; experiment: Test B flooded paddy test; assay type: in vivo, Heteranthera limosa; details: 125 g ai/ha, scale 0 to 100 (0 no effect, 100 complete control)
Method: as §4

[21] = tested on: morningglory; experiment: Test B pre-/postemergence herbicide test; assay type: in vivo, Ipomoea coccinea
Excerpt: as §3, §4

[22] = tested on: barnyardgrass; experiment: Test B flooded paddy test; assay type: in vivo, Echinochloa crus-galli; details: 125 g ai/ha, scale 0 to 100 (0 no effect, 100 complete control)
Method: as §4

[23] = tested on: wheat; experiment: Test B postemergence herbicide test; assay type: in vivo, Triticum aestivum; parameters: key to Wheat plant response rating: 0 = no effect, 100 = complete control
Method: as §4

[24] = Postemergence, 125 g ai/ha, 0 to 100 scale, 0 no effect, 100 complete control
[25] = Postemergence, 500 g ai/ha, 0 to 100 scale, 0 no effect, 100 complete control
[26] = preemergence, 125 g ai/ha, visual injury, 0 to 100 scale (0 no effect, 100 complete control)
[27] = preemergence, 500 g ai/ha, visual injury, 0 to 100 scale (0 no effect, 100 complete control)
[28] = 125 g ai/ha, 0 is no effect, 100 is complete control, preemergence
[29] = Postemergence, 500 g ai/ha, scale 0 (no effect) to 100 (complete control)
[30] = postemergence, 125 g ai/ha, scale 0 to 100

CCNC(=O)c1ccnc(NC(=O)c2cn(C(C)(C)C)nc2CC)c1 [Compound 452]
Foxtail, Giant plant response rating [1, 24]: 10
Foxtail, Giant plant response rating [1, 25]: 25
Foxtail, Giant plant response rating [1, 26]: 5
Foxtail, Giant plant response rating [1, 27]: 45
Pigweed plant response rating [2, 24]: 20
Pigweed plant response rating [2, 25]: 70
Pigweed plant response rating [2, 26]: 10
Pigweed plant response rating [2, 27]: 65
Barnyardgrass plant response rating [3, 24]: 10
Barnyardgrass plant response rating [3, 25]: 35
Barnyardgrass plant response rating [3, 26]: 15
Barnyardgrass plant response rating [3, 27]: 70
Morningglory plant response rating [4, 24]: 20
Morningglory plant response rating [4, 25]: 30
Morningglory plant response rating [4, 26]: 0
Morningglory plant response rating [4, 27]: 10
Velvetleaf plant response rating [5, 24]: 20
Velvetleaf plant response rating [5, 25]: 30
Velvetleaf plant response rating [5, 26]: 0
Velvetleaf plant response rating [5, 27]: 5
Crabgrass, Large plant response rating [6, 24]: 10
Crabgrass, Large plant response rating [6, 25]: 20
Crabgrass, Large plant response rating [6, 26]: 20
Crabgrass, Large plant response rating [6, 27]: 45

CC(C)(C)n1nc(Br)c(C(=O)Nc2cccc(C(=O)N3CC=CC3)c2)n1 [Compound 433]
Plant response rating (0 to 100 scale), Corn [7, 28]: 10
Corn plant response rating [7, 29]: 30
Corn plant response rating [7, 30]: 20
Plant response rating (0 to 100 scale), Crabgrass, Large [8, 28]: 90
Crabgrass, Large plant response rating [8, 29]: 30
Crabgrass, Large plant response rating [8, 30]: 20
Plant response rating (0 to 100 scale), Surinam Grass [9, 28]: 20
Surinam Grass plant response rating [9, 29]: 30
Surinam Grass plant response rating [9, 30]: 20
Plant response rating (0 to 100 scale), Barnyardgrass [10, 28]: 50
Barnyardgrass plant response rating ([10]; 125 g ai/ha): 10
Barnyardgrass plant response rating ([10]; 500 g ai/ha): 20
Oat, Wild plant response rating [11, 29]: 60
Oat, Wild plant response rating [11, 30]: 50
Blackgrass plant response rating [12, 29]: 40
Blackgrass plant response rating [12, 30]: 30
Plant response rating (0 to 100 scale), Pigweed [13, 28]: 100
Pigweed plant response rating [13, 29]: 70
Pigweed plant response rating [13, 30]: 50
Sedge, Umbrella plant response rating [14]: 70
Plant response rating (0 to 100 scale), Lambsquarters [15, 28]: 70
Lambsquarters plant response rating [15, 29]: 80
Lambsquarters plant response rating [15, 30]: 40
Rice plant response rating [16]: 0
Plant response rating (0 to 100 scale), Velvetleaf [17, 28]: 40
Velvetleaf plant response rating [17, 29]: 50
Velvetleaf plant response rating [17, 30]: 10
Plant response rating (0 to 100 scale), Foxtail, Giant [18, 28]: 60
Foxtail, Giant plant response rating [18, 29]: 40
Foxtail, Giant plant response rating [18, 30]: 30
Plant response rating (0 to 100 scale), Cocklebur [19, 28]: 10
Cocklebur plant response rating [19, 29]: 90
Cocklebur plant response rating [19, 30]: 40
Ducksalad plant response rating [20]: 60
Plant response rating (0 to 100 scale), Morningglory [21, 28]: 40
Morningglory plant response rating [21, 29]: 80
Morningglory plant response rating [21, 30]: 50
Barnyardgrass plant response rating [22]: 30
Wheat plant response rating ([23]; 500 g ai/ha, scale 0 to 100, 0 no effect, 100 complete control, preemergence): 50
Wheat plant response rating [23, 29]: 50
Wheat plant response rating [23, 30]: 40
